The results in this text go back to a melting point compilation (Tetko et al.; mined from patent text by program, amines drawn as free bases though some values may be those of a salt).

The term melting point denotes the temperature, or range, at which the solid turns liquid.

A value given as a limit tells only on which side of the number the result lay.

The compound `CCOC(=O)C(C)Oc1ccc2ccc(Oc3cc(-n4c(=O)cc(C(F)(F)F)n(C)c4=O)c(F)cc3C#N)cc2c1` (centres undefined) yielded a melting point of 133 °C.
To `Oc1cccc2c1CCC(n1cc[nH]c1=S)C2` (centres undefined) belongs 263 to 265 °C; to `CCOC(=O)c1[nH]c2cc(C(F)(F)F)ccc2c1NCC(=O)c1ccccc1`, 237 to 239 °C; to `CCC(C)(C)Nc1c(NCc2cccc(Cl)c2Cl)c(=O)c1=O`, 222 to 223 °C.
The compound `O=C(O)c1ccc2c(c1)c(=O)[nH]c(=O)n2CCCCN1CCC(OC(c2ccccc2)c2ccccc2)CC1` returned a melting point of 161 to 163 °C.
To `O=C1NC(=O)N(Cc2ccccc2)C(=O)C1Cc1ccccc1` (centres undefined) belongs 107 to 109 °C.
With `CC(C)C(c1cc(Cl)ccc1N1CCCCC1)C(C(N)=O)c1ccc(C(=O)O)cc1` (centres undefined) the figure was 236 to 240 °C; with `NC(=O)c1ccc(CCCCCCN2CCOCC2)cc1O`, 70 to 73 °C.
With `CC1(C)C2C=CC3(C)C(C2)C(=O)CCC13O` (centres undefined) the figure was 112 to 115 °C; with `C=CCSc1sc(-c2cc[nH]n2)c2c1C(=O)CC(C)(C)C2`, 164 to 167 °C.
For `Cc1ccc(Cn2cnc3c(-c4ccco4)ncnc32)cc1`, the melting point lay within 166 to 167 °C.
To `CCCc1c(OCCCCCC(=O)c2ccc3cc(O)c(O)cc3c2)ccc(C(=O)O)c1O` belongs 205 to 207 °C; to `CSc1nc(Cl)c(-c2ccc(C)cc2)c(Cl)n1`, 74 to 78 °C.
To `CC1(C)CCc2c(N3CCCC3)nc3sc4c(NCC(=O)NCC5CCCO5)ncnc4c3c2C1` (centres undefined) belongs 210 to 211 °C; to `CSC1COc2cc(NS(C)(=O)=O)c(Oc3ccccc3)cc2C1=O` (centres undefined), 126 to 128 °C.
To `C=CCc1c(C)ccc(N2C(=O)c3ccccc3C2=O)c1OCc1ccccc1` belongs 107 to 109 °C; to `CCCCc1oc2ccccc2c1C(=O)Nc1ccc2c(Br)c(OC(Cc3ccccc3)C(=O)O)ccc2c1` (centres undefined), 191 to 195 °C.
The compound `Cc1cc(OC(C)C)ccc1N1CCCn2c1nc1c(Cl)ccc(C(OC(F)F)C(F)(F)F)c12` (centres undefined) showed a melting point of 198 to 204 °C.
With `COc1ccc(S(=O)(=O)Nc2ccccc2OC)cc1` the figure was 85.5 to 87 °C; with `COC(=O)c1ccc(OC)c(C=C2COc3ccc(OCc4ccccc4)cc3C2=O)c1`, 167 to 169 °C; with `CCC(NC(C)=O)C(=O)O` (centres undefined), 128 to 130 °C.
As to `COC(=O)c1ccc(-c2c(CC(=O)Nc3ccc(F)cc3C(F)(F)F)c(=O)oc3cc(Cl)c(C)cc23)cc1`, the melting point was 202 to 204 °C.
To `O=C(Cc1ccccc1[N+](=O)[O-])CN1C(=O)c2ccccc2C1=O` belongs 179 to 182 °C; to `Cc1ccc(S(=O)(=O)OCC2Cc3cc(Cl)c4c(c3O2)CCC4)cc1` (centres undefined), 82 to 84 °C.
`CCSc1nsc(NC(=O)Oc2ccccc2)c1C#N` had a melting point of 223 to 225 °C.
With `O=C(NCCOc1ccc(CC(Oc2cccc(F)c2)C(=O)O)cc1)c1ccc(-c2ccccn2)cc1` (centres undefined) the figure was 136 to 138 °C; with `Brc1ccc2c3c(cccc13)C(NCCCCCCCCCCn1ccnc1)=N2`, 115 to 116 °C; with `CS(=O)(=O)c1ccc(-c2ccccc2[N+](=O)[O-])cc1`, 178 °C.
With `Nc1ccc(C#CCCN2CCC(O)(c3ccc(Cl)cc3)CC2)cc1`, the melting point lay within 134 to 136 °C.
To `c1ccc(C2SCCCS2)cc1` belongs 72 to 73 °C; to `C=CCOc1cccc(C(=O)c2ccccc2C(=O)O)c1`, 109 °C.
Compound `CNc1cc(Sc2ccc(O)cc2)c(N)cc1[N+](=O)[O-]` returned a melting point of 206 °C.
On to `CC(C)(C)C(=O)OCc1cc2c(OCC3CO3)cccc2[nH]1` (centres undefined), for which the melting point lay within 129 to 131 °C.
To `O=C(CCl)NCC(CNC(=O)CCl)OC1CCCCO1` (centres undefined) belongs 100 °C; to `CC(C)(C=O)Cc1cc(C(C)(C)C)c(O)c(C(C)(C)C)c1`, 72 to 74 °C.
Compound `CCOC(=O)C(C)(C)S(=O)c1ccc2c(-c3ccc(Cl)cc3)noc2c1` (centres undefined) returned a melting point of 89 °C.
To `COC(=O)c1ccc2c(c1)-n1cccc1CO2` belongs 60 to 62 °C; to `CC1CC(=O)NN=C1c1ccc2c(c1)N(S(C)(=O)=O)CCO2` (centres undefined), 207 to 212 °C.
With `Cc1nc(N)c2nc(CO)n(NCc3cccnc3)c2c1C` the figure was 258 to 260 °C; with `COc1c(N)cccc1NC(=O)c1ccc(Br)cc1`, 111 to 112 °C.
To `COc1ccccc1C1=CCN(C[C@@H](CC2CCCCC2)NC(=O)C2(C)CCCCC2)CC1` belongs 93 to 95 °C; to `O=C(Nc1ccccc1)C1=C(O)c2ccc3ccccc3c2S(=O)(=O)N1`, 260 to 262 °C; to `Cc1ccc(S(=O)(=O)n2cc(CO)nc2C)cc1`, 140 to 143 °C.
Regarding `CC(=O)c1cccc(-c2cc3c4cc(C)ccc4[nH]c3n(C)c2=O)c1`, the melting point fell in the range of 258 to 260 °C.
To `O=C(NN=Cc1ccnc2ccccc12)c1ccc(Cl)cc1` belongs 233 °C; to `c1ccc(CN2CCN(c3cccc4cccnc34)CC2)cc1`, 116 to 118 °C; to `Cc1nc(-c2ccc(OC(F)(F)F)cc2)ccc1CO`, 68 to 69 °C.
To `C=CCC(O)CCCCCCCCCCCCCCCCC` (centres undefined) belongs 48 to 50.5 °C.
Compound `CS(=O)(=O)c1ccc(-n2cncc2-c2ccc(Cl)nc2)cc1` registered a melting point of 191 to 192 °C.
To `CN1C(=O)C(NS(=O)(=O)CC23CCC(CC2=O)C3(C)C)N=C(c2ccccc2)c2ccccc21` (centres undefined) belongs 204 to 206 °C; to `CCCCC1(CCCC)CCc2c(OCc3ccc4ccccc4n3)ccc(Cl)c2C1O` (centres undefined), 142 to 144 °C.
As for `COCc1c(-c2ccncc2)[nH]c(-c2ccncc2)c1C(=O)OC`, the melting point lay in the range of 97 to 99 °C.
Turning to `CCCCCCCCCCCCCCCCOC(=O)NCCN1CCOCC1`, the melting point came to 65 °C.
To `CCOC(=O)c1nc(-c2ccc([N+](=O)[O-])cc2)[nH]c1-c1ccc(N(C)C)cc1` belongs 240 to 242 °C; to `CCCC1Sc2ccc(F)cc2C=C1c1ccc2c(c1)NC(=O)CO2` (centres undefined), 161 to 162 °C.
With `COC1=C(OC)C(=O)C2=C(CC(CCCCCCCCN3C(=O)c4ccccc4C3=O)C2)C1=O` the figure was 91 to 93 °C; with `Nc1cc(S(=O)c2ccccc2)ccc1Cl` (centres undefined), 89 to 90 °C; with `N#Cc1nc(NC2CCCCC2)c2ncn(CCn3ccnc3)c2n1`, 115 to 117 °C.
With `NNC(=O)Cn1c(=S)sc2ccccc21` the figure was 214 to 215 °C; with `COc1ccc(C(N)=Nc2ccc(C(=O)O)cc2)cc1C12CC3CC(CC(C3)C1)C2`, 263 to 265 °C.
On to `Cc1nc(N)c2nc(O)n(Cc3cc(-c4ccc(F)cc4)no3)c2c1C`, for which the melting point amounted to 250 °C.
With `N#Cc1ccc2c(c1)c(CCN1C(=O)c3ccccc3C1=O)cn2Cc1ccccc1` the figure was 182 to 184 °C.
To `NC(=O)Cc1ccc(N/C=C2\C(=O)Nc3ccccc32)cc1` belongs more than 250 °C; to `O=C(O)c1cccc(Oc2ccccc2Cl)c1[N+](=O)[O-]`, 185 to 187 °C.
With `COc1ccc2nc(N3CCNCC3)ccc2c1` the figure was 95 to 97 °C; with `CCCCCCCCC(SCCCCCC)C(=O)NC1(OC)C=C(C)C=CN1` (centres undefined), 83 to 85 °C.
Compound `Cc1cc(C)cc(C(=O)N2CC[C@H](NCc3ccnc4ccccc34)C[C@H]2Cc2ccc(Cl)c(Cl)c2)c1` (relative stereo) came in with a melting point of 121 to 124 °C.
With `COc1cc2c(cc1-n1cccc1)C(Nc1ccc(F)c(Cl)c1)=C(C#N)CN2` the figure was 192 to 194 °C; with `CC(C)S(=O)(=O)C(C#N)=C(Nc1cc(C(F)(F)F)cc(C(F)(F)F)c1)NC1CCCC1`, 172 to 173 °C; with `CC(C)(C)OC(=O)NCCN1CC2CNCC(C1)O2`, 91 to 93 °C.
With `O=[N+]([O-])c1ccc2c(c1)CN(Cc1ccccc1)CC2` the figure was 85 to 86 °C; with `CN1C(=O)N(CC(CS(=O)(=O)c2ccc(-c3ccc(Cl)cc3)cc2)C(=O)O)C(=O)C1(C)C` (centres undefined), 148 to 150 °C; with `O=C(c1cccc(C(F)(F)F)c1)c1cc2c(F)ccc(Br)c2o1`, 114 to 115 °C.
With `COc1cc2c(cc1Nc1ncc(Cl)c(Nc3cc(C(N)=O)ccc3OC)n1)CCN(C(=O)CN(C)C)CC2` the figure was 226 to 233 °C.
As for `Cn1ccnc1Sc1ccc(Nc2c(C#N)cnc3cc(F)ccc23)cc1Cl`, the melting point lay within 268 to 272 °C.
With `Cc1cc(S(F)(F)(F)(F)F)c(S(C)(=O)=O)cc1C(=O)NC(=N)N` the figure was 254 to 256 °C; with `CC(O)c1cc2ccccc2cn1` (centres undefined), 104 to 106 °C.
On to `CCOc1ccc(-c2ccc(Br)cc2)cc1`, for which the melting point came to 139 °C.
To `O=c1[nH]c2cc(Cl)ccc2n(O)c1=O` belongs more than 300 °C; to `CCCCCCCCOC(=O)c1nc(Cl)c(Cl)nc1N`, 85 °C; to `CC(C)CNc1c([N+](=O)[O-])c2nnnn2c2cnccc12`, 173 to 174 °C.
To `CC1(C)OC(=O)C(c2ccc3sccc3c2)O1` (single isomer, unassigned; (-)) belongs 116 to 117 °C; to `O=Cc1c(O)ccc2cccnc12`, 127 to 130 °C.
With `O=C(CCCCCBr)Nc1ccc(O)cc1F` the figure was 66 to 69 °C.
`Cc1c(CN2CCN(c3cccc(Cl)c3)C2=O)ncn1C(c1ccccc1)(c1ccccc1)c1ccccc1` registered a melting point of 189 to 191 °C.
`CCCc1ccc(-c2nc(-c3ccccc3Cl)nn2C)c(Cl)c1` displayed a melting point of 70 to 72 °C.
To `Cc1cn(C2CC(C#N)C(COC(c3ccccc3)(c3ccccc3)c3ccccc3)O2)c(=O)[nH]c1=O` (centres undefined) belongs 153 to 157 °C; to `COc1ccc(-c2coc3ccc(-c4nnc(SCc5cccc(F)c5)o4)cc23)cc1`, 146 to 147 °C.
To `CN(CCF)c1nc2cc(NC(=O)c3c(C(=O)N4CCOCC4)cnn3C)ccn2n1` belongs 144 to 145 °C.
